Measured values published in patent US7192746B2, “α-Isomaltosyltransferase, process for producing the same and use thereof” (Kabushiki Kaisha Hayashibara Seibutsu Kagaku Kenkyujo, priority 2000, dated 2007).

How the values were obtained:
Assay type in all cases: biochemical
[1] = system: α-isomaltosyl-transferring enzyme from Bacillus globisporus C9; experiment: Specificity to transferring acceptor; design: key: −: no saccharide transferred product was formed; ±: a saccharide-transferred product formed in an amount of less than one percent to the total sugars; +: a saccharide-transferred product was formed in an amount of over one percent but below 10% to the total sugars; ++: a saccharide-transferred product was formed in an amount of over 10% to the total sugars; conditions: panose as saccharide donor, 10 units/g substrate, 3.2% (w/v), 30° C., pH 6.0, 24 hours
In short: (§1)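 Candidate acceptor saccharides mixed with panose donor at equal concentration, 10 units/g substrate enzyme, total saccharide 3.2% (w/v), reacted 24 h at 30 °C, pH 6.0. Transfer product formation scored positive/negative by GLC (mono-/disaccharides) or HPLC (tri- and higher).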

[2] = system: α-isomaltosyl-transferring enzyme from Bacillus globisporus N75; experiment: Specificity to transferring acceptor; design: key: −: no saccharide transferred product was formed; ±: a saccharide-transferred product formed in an amount of less than one percent to the total sugars; +: a saccharide-transferred product was formed in an amount of over one percent but below 10% to the total sugars; ++: a saccharide-transferred product was formed in an amount of over 10% to the total sugars; conditions: panose as saccharide donor, 10 units/g substrate, 3.2% (w/v), 30° C., pH 6.0, 24 hours
In short: as §1

[3] = system: α-isomaltosyl-transferring enzyme from Arthrobacter ramosus S1; experiment: Specificity to transferring acceptor; design: key: −: no saccharide transferred product was formed; ±: a saccharide-transferred product formed in an amount of less than one percent to the total sugars; +: a saccharide-transferred product was formed in an amount of over one percent but below 10% to the total sugars; ++: a saccharide-transferred product was formed in an amount of over 10% to the total sugars; conditions: panose as saccharide donor, 10 units/g substrate, 3.2% (w/v), 30° C., pH 6.0, 24 hours
In short: as §1

[4] = system: α-isomaltosyl-transferring enzyme from Bacillus globisporus C11; experiment: Specificity to transferring acceptor; design: key: −: no saccharide transferred product was formed; ±: a saccharide-transferred product formed in an amount of less than one percent to the total sugars; +: a saccharide-transferred product was formed in an amount of over one percent but below 10% to the total sugars; ++: a saccharide-transferred product was formed in an amount of over 10% to the total sugars; conditions: panose as saccharide donor, 10 units/g substrate, 3.2% (w/v), 30° C., pH 6.0, 24 hours
In short: as §1

[5] = system: α-isomaltosyl-transferring enzyme from Arthrobacter globiformis A19; experiment: Specificity to transferring acceptor; design: key: −: no saccharide transferred product was formed; ±: a saccharide-transferred product formed in an amount of less than one percent to the total sugars; +: a saccharide-transferred product was formed in an amount of over one percent but below 10% to the total sugars; ++: a saccharide-transferred product was formed in an amount of over 10% to the total sugars; conditions: partially purified enzyme, panose as saccharide donor, 10 units/g substrate, 3.2% (w/v), 30° C., pH 6.0, 24 hours
In short: as §1

[6] = system: α-isomaltosyl-transferring enzyme from Bacillus globisporus C9; experiment: Action on saccharides (substrates, TLC); design: key: −: there was found no substrate change before and after the enzymatic reaction; +: there were found both the reduction of substrate and the formation of cyclotetrasaccharide after the enzymatic reaction; conditions: 2 units/g substrate, 2% (w/v) substrate, 30° C., pH 6.0, 24 hours
In short: (§2)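 TLC detection used sulfuric acid-methanol coloration for all sugars and diphenylamine-aniline for reducing ones, after development in n-butanol/pyridine/water (6:4:1). Reactions contained 2% (w/v) substrate and 2 units/g substrate of purified enzyme, incubated 24 hours at 30° C., pH 6.0.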

[7] = system: α-isomaltosyl-transferring enzyme from Bacillus globisporus N75; experiment: Action on saccharides (substrates, TLC); design: key: −: there was found no substrate change before and after the enzymatic reaction; +: there were found both the reduction of substrate and the formation of cyclotetrasaccharide after the enzymatic reaction; conditions: 2 units/g substrate, 2% (w/v) substrate, 30° C., pH 6.0, 24 hours
In short: as §2

[8] = system: α-isomaltosyl-transferring enzyme from Arthrobacter ramosus S1; experiment: Action on saccharides (substrates, TLC); design: key: −: there was found no substrate change before and after the enzymatic reaction; +: there were found both the reduction of substrate and the formation of cyclotetrasaccharide after the enzymatic reaction; conditions: 2 units/g substrate, 2% (w/v) substrate, 30° C., pH 6.0, 24 hours
In short: as §2

[9] = system: α-isomaltosyl-transferring enzyme from Bacillus globisporus C11; experiment: Action on saccharides (substrates, TLC); design: key: −: there was found no substrate change before and after the enzymatic reaction; +: there were found both the reduction of substrate and the formation of cyclotetrasaccharide after the enzymatic reaction; conditions: 2 units/g substrate, 2% (w/v) substrate, 30° C., pH 6.0, 24 hours
In short: as §2

[10] = system: α-isomaltosyl-transferring enzyme from Arthrobacter globiformis A19; experiment: Action on saccharides (substrates, TLC); design: key: −: there was found no substrate change before and after the enzymatic reaction; +: there were found both the reduction of substrate and the formation of cyclotetrasaccharide after the enzymatic reaction; conditions: partially purified enzyme, 2 units/g substrate, 2% (w/v) substrate, 30° C., pH 6.0, 24 hours
In short: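 Purified enzyme (partially purified for A. globiformis A19) at 2 units/g substrate acted on each saccharide at 2% (w/v), pH 6.0, 30° C., 24 h. Pre- and post-reaction mixtures ran on silica gel TLC in n-butanol/pyridine/water (6:4:1). Total sugars were stained by sulfuric acid-methanol and reducing sugars by diphenylamine-aniline.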

Molecule	Product of transferring reaction, Enzyme of Strain C9 [1]	Product of transferring reaction, Enzyme of Strain N75 [2]	Product of transferring reaction, Enzyme of Strain S1 [3]	Product of transferring reaction, Enzyme of Strain C11 [4]	Product of transferring reaction, Enzyme of Stain A19 [5]	Enzymatic action for forming cyclotetrasaccharide, Enzyme of Strain C9 [6]	Enzymatic action for forming cyclotetrasaccharide, Enzyme of Strain N75 [7]	Enzymatic action for forming cyclotetrasaccharide, Enzyme of Strain S1 [8]	Enzymatic action for forming cyclotetrasaccharide, Enzyme of Strain C11 [9]	Enzymatic action for forming cyclotetrasaccharide, Enzyme of Strain A19 [10]
OC[C@H]1O[C@@](CO)(O[C@H]2O[C@H](CO)[C@@H](O)[C@H](O)[C@H]2O)[C@@H](O)[C@@H]1O [Sucrose, sucrose]	+ (a saccharide-transferred product was formed in an amount of over one percent but below 10% to the total sugars)	+ (a saccharide-transferred product was formed in an amount of over one percent but below 10% to the total sugars)	+ (a saccharide-transferred product was formed in an amount of over one percent but below 10% to the total sugars)	+ (a saccharide-transferred product was formed in an amount of over one percent but below 10% to the total sugars)	+ (a saccharide-transferred product was formed in an amount of over one percent but below 10% to the total sugars)	−	−	−	−	−
OC[C@H]1O[C@H](O[C@H]2O[C@H](CO)[C@@H](O)[C@H](O)[C@H]2O)[C@H](O)[C@@H](O)[C@@H]1O [α,α-Trehalose, α,α-trehalose]	+ (a saccharide-transferred product was formed in an amount of over one percent but below 10% to the total sugars)	+ (a saccharide-transferred product was formed in an amount of over one percent but below 10% to the total sugars)	+ (a saccharide-transferred product was formed in an amount of over one percent but below 10% to the total sugars)	+ (a saccharide-transferred product was formed in an amount of over one percent but below 10% to the total sugars)	+ (a saccharide-transferred product was formed in an amount of over one percent but below 10% to the total sugars)	−	−	−	−	−
OC[C@H]1O[C@@H](O[C@H]2O[C@H](CO)[C@@H](O)[C@H](O)[C@H]2O)[C@H](O)[C@@H](O)[C@@H]1O [α,β-trehalose]	++ (a saccharide-transferred product was formed in an amount of over 10% to the total sugars)	++ (a saccharide-transferred product was formed in an amount of over 10% to the total sugars)	++ (a saccharide-transferred product was formed in an amount of over 10% to the total sugars)	++ (a saccharide-transferred product was formed in an amount of over 10% to the total sugars)	++ (a saccharide-transferred product was formed in an amount of over 10% to the total sugars)	−	−	−	−	−
OC[C@H]1O[C@@H]2O[C@H]3[C@H](O)[C@@H](O)[C@@H](O[C@H]4[C@H](O)[C@@H](O)[C@@H](O[C@H]5[C@H](O)[C@@H](O)[C@@H](O[C@H]6[C@H](O)[C@@H](O)[C@@H](O[C@H]7[C@H](O)[C@@H](O)[C@@H](O[C@H]1[C@H](O)[C@H]2O)O[C@@H]7CO)O[C@@H]6CO)O[C@@H]5CO)O[C@@H]4CO)O[C@@H]3CO [α-Cyclodextrin, α-cyclodextrin]	−	−	−	−	−	−	−	−	−	−
OC[C@H]1O[C@@H]2O[C@H]3[C@H](O)[C@@H](O)[C@@H](O[C@H]4[C@H](O)[C@@H](O)[C@@H](O[C@H]5[C@H](O)[C@@H](O)[C@@H](O[C@H]6[C@H](O)[C@@H](O)[C@@H](O[C@H]7[C@H](O)[C@@H](O)[C@@H](O[C@H]8[C@H](O)[C@@H](O)[C@@H](O[C@H]1[C@H](O)[C@H]2O)O[C@@H]8CO)O[C@@H]7CO)O[C@@H]6CO)O[C@@H]5CO)O[C@@H]4CO)O[C@@H]3CO [β-Cyclodextrin, β-cyclodextrin]	−	−	−	−	−	−	−	−	−	−
OC[C@H]1O[C@@H]2O[C@H]3[C@H](O)[C@@H](O)[C@@H](O[C@H]4[C@H](O)[C@@H](O)[C@@H](O[C@H]5[C@H](O)[C@@H](O)[C@@H](O[C@H]6[C@H](O)[C@@H](O)[C@@H](O[C@H]7[C@H](O)[C@@H](O)[C@@H](O[C@H]8[C@H](O)[C@@H](O)[C@@H](O[C@H]9[C@H](O)[C@@H](O)[C@@H](O[C@H]1[C@H](O)[C@H]2O)O[C@@H]9CO)O[C@@H]8CO)O[C@@H]7CO)O[C@@H]6CO)O[C@@H]5CO)O[C@@H]4CO)O[C@@H]3CO [γ-Cyclodextrin, γ-cyclodextrin]	−	−	−	−	−	−	−	−	−	−
maltopentaose	+ (a saccharide-transferred product was formed in an amount of over one percent but below 10% to the total sugars)	± (a saccharide-transferred product formed in an amount of less than one percent to the total sugars)	± (a saccharide-transferred product formed in an amount of less than one percent to the total sugars)	+ (a saccharide-transferred product was formed in an amount of over one percent but below 10% to the total sugars)	+ (a saccharide-transferred product was formed in an amount of over one percent but below 10% to the total sugars)	−	−	−	−	−
